Test results from ChEMBL document CHEMBL4265947, “Conformation impacts on the bioactivities of SMART analogues” (Eur J Med Chem, 2018).

How the values were obtained:
HT-1080 = test: Antiproliferative activity against human HT1080 cells after 72 hrs by MTT assay; format: functional, cell-based; conditions: HT-1080, 72 h
SGC-7901 = test: Antiproliferative activity against human SGC7901 cells after 72 hrs by MTT assay; format: functional, cell-based; conditions: SGC-7901, 72 h
[1] = Selectivity index, ratio of IC50 for mouse L929 cells to IC50 for human SGC7901 cells; format: toxicity; conditions: L929 cells versus SGC7901 cells, read-out: Ratio IC50
[2] = Selectivity index, ratio of IC50 for mouse L929 cells to IC50 for human HT1080 cells; format: toxicity; conditions: L929 cells versus HT1080 cells, read-out: Ratio IC50
[3] = Selectivity index, ratio of IC50 for mouse L929 cells to IC50 for human A549 cells; format: toxicity; conditions: L929 cells versus A549 cells, read-out: Ratio IC50
L929 = test: Antiproliferative activity against mouse L929 cells after 72 hrs by MTT assay; format: cell-based; conditions: L929, 72 h
A549 = test: Antiproliferative activity against human A549 cells after 72 hrs by MTT assay; format: functional, cell-based; conditions: A549, 72 h
[4] = (§1) Inhibition of porcine tubulin polymerization preincubated for 1 min and measured for 82 mins by fluorescence assay; set-up: species or system Sus scrofa
Sus scrofa = species on record: Sus scrofa; test: as §1

Structure (SMILES) | IC50 (HT-1080) [nM] | IC50 (SGC-7901) [nM] | IC50 (A549) [nM] | IC50 [4] [nM] | inhibition (Sus scrofa) | selectivity ratio [1] | selectivity ratio [2] | selectivity ratio [3] | IC50 (L929) [nM]
COc1cc2c(c(OC)c1OC)-c1ccc(OC)c(=O)cc1[C@@H](NC(C)=O)CC2 [COLCHICINE] | 42 | 134 | 137 | – | – | 7.5 | 24 | 7.4 | 1010
COc1ccc(/C=C\c2cc(OC)c(OC)c(OC)c2)cc1O [COMBRETASTATIN A4] | – | 12 | 16 | – | – | – | – | – | 820
COc1cc(C(=O)c2csc(-c3ccccc3)n2)cc(OC)c1OC | 150 | – | – | – | – | – | – | – | –

Continued, in another order:

IC50 (HT-1080) [nM] | IC50 (SGC-7901) [nM] | IC50 (A549) [nM] | IC50 [4] [nM] | inhibition (Sus scrofa) | Structure (SMILES) | selectivity ratio [1] | selectivity ratio [2] | selectivity ratio [3] | IC50 (L929) [nM]
> 100000 | 6770 | 15300 | – | – | COc1cc(C(=O)c2nnc(-c3ccc(C)cc3)o2)cc(OC)c1OC | – | – | – | –
> 100000 | > 100000 | 35300 | > 100000 | – | COc1cc(C(=O)c2nnc(-c3ccc(C)cc3)s2)cc(OC)c1OC | – | – | – | –
650 | 380 | 1070 | 7710 | Dose-dependent effect | COc1cc(C(=O)c2nc(-c3ccc(C)cc3)n[nH]2)cc(OC)c1OC | 112 | 65.5 | 39.8 | 42600
